These results are taken from patent US10479795B2 (Incyte Corporation, priority 2016, dated 2019).

Where a name gives a salt, the structure may show the parent alone. Read-outs that look alike come from different tables or passages of the source.

Assay [1] deals with Phosphorylated Ribosomal Protein S6 (RPS6). The assay can be described thus: THP-1 RPS6 ELISA Assay. As to conditions: THP-1 cells, read-out: PI3Kγ_THP1_RPS6_ELISA IC50. Type of assay: cell-based, Human. In a few lines: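 Serum-starved THP-1 cells were preincubated with a concentration range of compound for 2 h at 37 °C, then stimulated with 10 nM MCP-1 for 15 min. Phospho-RPS6 in lysates was quantified by ELISA at 450 nm. IC50 came from percent inhibition versus log inhibitor concentration.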

In assay [2] the target is PI3Kγ (p110γ) Recombinant Human Protein (Homo sapiens (Human), UniProt P48736). The assay can be described thus: PI3K-γ Scintillation Proximity Assay. Type of assay: biochemical. As to conditions: read-out: PI3Kγ IC50. An outline of the steps: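 Recombinant human p110γ assayed at room temperature in 20 mM MOPS pH 6.7, 10 mM MgCl2, 5 mM DTT, 0.03% CHAPS, 2% DMSO, with 20 μM PIP2 and 2 μM ATP plus [γ-33P]ATP. Product captured on WGA SPA beads overnight and counted; IC50 fitted from % of solvent-control activity versus log inhibitor concentration.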
Sequence of PI3Kγ (p110γ) Recombinant Human Protein (P48736 whole entry): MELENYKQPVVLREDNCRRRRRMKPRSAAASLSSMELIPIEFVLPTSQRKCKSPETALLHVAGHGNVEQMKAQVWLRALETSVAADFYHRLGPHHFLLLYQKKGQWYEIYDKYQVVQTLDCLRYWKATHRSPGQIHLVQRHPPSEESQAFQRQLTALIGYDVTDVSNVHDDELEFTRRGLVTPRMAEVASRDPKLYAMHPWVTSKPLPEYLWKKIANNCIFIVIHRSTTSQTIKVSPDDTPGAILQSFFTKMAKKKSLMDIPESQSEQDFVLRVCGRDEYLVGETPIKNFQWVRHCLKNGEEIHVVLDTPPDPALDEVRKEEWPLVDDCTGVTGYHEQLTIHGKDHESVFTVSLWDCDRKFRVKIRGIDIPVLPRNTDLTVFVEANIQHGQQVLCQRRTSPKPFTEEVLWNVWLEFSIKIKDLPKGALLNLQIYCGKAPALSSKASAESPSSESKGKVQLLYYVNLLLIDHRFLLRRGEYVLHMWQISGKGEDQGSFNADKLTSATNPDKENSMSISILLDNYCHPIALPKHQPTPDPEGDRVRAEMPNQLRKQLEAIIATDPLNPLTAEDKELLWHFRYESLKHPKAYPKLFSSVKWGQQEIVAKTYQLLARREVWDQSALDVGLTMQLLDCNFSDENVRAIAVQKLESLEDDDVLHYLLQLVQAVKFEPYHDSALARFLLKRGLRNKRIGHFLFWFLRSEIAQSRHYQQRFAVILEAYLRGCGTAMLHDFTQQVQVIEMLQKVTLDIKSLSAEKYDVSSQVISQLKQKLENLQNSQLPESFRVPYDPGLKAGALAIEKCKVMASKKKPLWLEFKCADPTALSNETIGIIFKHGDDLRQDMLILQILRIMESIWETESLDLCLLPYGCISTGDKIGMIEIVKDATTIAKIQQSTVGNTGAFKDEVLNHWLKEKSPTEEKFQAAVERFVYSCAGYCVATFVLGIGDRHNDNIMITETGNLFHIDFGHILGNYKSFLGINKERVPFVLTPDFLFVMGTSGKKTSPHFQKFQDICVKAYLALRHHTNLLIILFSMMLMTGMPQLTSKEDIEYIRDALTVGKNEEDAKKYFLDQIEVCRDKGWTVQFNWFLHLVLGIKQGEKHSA

In assay [3] the target is PI3Kδ (p110δ/p85α) Recombinant Human Protein (Homo sapiens (Human), UniProt O00329). The assay can be described thus: PI3Kδ Scintillation Proximity Assay. Type of assay: biochemical. An outline of the steps:
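Recombinant human p110δ/p85α (3.4 nM) phosphorylates 20 μM di-octanoyl PIP2 using 2 μM ATP spiked with [γ-33P]ATP, 120 min, room temperature, pH 6.7, 2% DMSO. Product measured by scintillation proximity; IC50 from dose-response fit.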
In general terms: Scintillation proximity formats need no separation of bound from free tracer.

Sequence of PI3Kδ (p110δ/p85α) Recombinant Human Protein (O00329 whole entry): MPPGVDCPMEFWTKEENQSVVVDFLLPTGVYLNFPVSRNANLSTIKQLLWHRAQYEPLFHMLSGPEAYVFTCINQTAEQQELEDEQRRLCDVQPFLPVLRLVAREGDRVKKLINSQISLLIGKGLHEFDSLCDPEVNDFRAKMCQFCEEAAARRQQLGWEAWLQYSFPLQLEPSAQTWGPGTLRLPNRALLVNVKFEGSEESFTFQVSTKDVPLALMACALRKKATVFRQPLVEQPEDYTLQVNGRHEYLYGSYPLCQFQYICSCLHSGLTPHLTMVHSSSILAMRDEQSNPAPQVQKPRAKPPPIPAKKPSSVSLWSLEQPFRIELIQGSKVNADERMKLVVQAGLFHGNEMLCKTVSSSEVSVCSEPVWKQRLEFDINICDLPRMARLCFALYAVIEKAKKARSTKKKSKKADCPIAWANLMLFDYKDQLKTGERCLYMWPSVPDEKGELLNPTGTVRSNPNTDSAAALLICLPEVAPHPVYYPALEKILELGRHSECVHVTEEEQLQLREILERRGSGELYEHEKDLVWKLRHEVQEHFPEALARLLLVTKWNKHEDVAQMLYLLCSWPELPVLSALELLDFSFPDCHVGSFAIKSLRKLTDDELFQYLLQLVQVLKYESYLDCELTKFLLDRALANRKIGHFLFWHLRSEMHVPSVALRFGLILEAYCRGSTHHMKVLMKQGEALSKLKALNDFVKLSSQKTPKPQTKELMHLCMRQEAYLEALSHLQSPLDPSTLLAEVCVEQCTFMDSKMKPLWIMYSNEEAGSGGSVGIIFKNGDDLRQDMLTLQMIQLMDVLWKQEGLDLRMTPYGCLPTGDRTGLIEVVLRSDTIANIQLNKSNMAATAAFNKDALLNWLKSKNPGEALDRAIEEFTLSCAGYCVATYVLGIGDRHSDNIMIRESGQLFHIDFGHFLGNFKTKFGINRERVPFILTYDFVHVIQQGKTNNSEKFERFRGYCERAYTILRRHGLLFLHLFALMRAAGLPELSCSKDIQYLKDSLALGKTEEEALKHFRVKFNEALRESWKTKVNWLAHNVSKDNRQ
Sequence of PI3Kδ (p110δ/p85α) Recombinant Human Protein (P27986 whole entry partner): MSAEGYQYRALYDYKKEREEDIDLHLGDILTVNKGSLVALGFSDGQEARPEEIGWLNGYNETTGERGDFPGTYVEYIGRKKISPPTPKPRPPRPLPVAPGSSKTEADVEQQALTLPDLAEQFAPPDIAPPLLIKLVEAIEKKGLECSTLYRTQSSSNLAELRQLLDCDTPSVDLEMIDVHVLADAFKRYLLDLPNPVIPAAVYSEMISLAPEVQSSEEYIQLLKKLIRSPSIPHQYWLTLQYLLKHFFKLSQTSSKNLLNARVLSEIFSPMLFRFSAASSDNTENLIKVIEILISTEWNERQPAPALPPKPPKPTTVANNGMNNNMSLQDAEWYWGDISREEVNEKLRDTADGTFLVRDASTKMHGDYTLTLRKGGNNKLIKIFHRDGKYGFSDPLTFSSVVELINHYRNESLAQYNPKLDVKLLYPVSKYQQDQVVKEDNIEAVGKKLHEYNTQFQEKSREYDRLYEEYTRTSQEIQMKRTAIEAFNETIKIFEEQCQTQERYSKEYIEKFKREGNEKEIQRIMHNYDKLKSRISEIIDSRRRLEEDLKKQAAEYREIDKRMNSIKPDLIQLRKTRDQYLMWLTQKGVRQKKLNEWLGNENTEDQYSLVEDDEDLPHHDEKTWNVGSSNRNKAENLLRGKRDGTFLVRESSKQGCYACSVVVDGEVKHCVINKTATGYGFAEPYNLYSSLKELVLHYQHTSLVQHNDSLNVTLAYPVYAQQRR

Turning to `Cc1ccc(S(=O)(=O)N[C@H]2C[C@](C)(C#N)C2)cc1-c1cnc2c(N)ncnn12` [Example 87, 3-(4-Aminoimidazo[1,2-f][1,2,4]triazin-7-yl)-N-((1r,3r)-3-cyano-3-methylcyclobutyl)-4-methylbenzenesulfonamide trifluoroacetate salt], the values for the IC50 in assay [1], in assay [2] and in assay [3] were 100 to 500 nM, less than 100 nM and 100 to 500 nM, respectively.

`Cc1ccc(S(=O)(=O)NC2CCC(F)(F)CC2)cc1-c1cnc2c(N)nccn12` [Example 84, 3-(8-amionimidazo[1,2-a]pyrazin-3-yl)-N-(4,4-difluorocyclohexyl)-4-methylbenzenesulfonamide]: the IC50 (usually the concentration needed to halve the response being measured) was more than 1000 nM in assay [1], less than 100 nM in assay [2] and 500 to 2000 nM in assay [3].

With `Cc1c(F)cc(S(=O)(=O)NC23CCC(C#N)(C2)C3)cc1-c1cnc2c(N)nc(C(F)(F)F)nn12` [Example 416, 3-(4-Amino-2-(trifluoromethyl)imidazo[1,2-f][1,2,4]triazin-7-yl)-N-(4-cyanobicyclo[2.1.1]hexan-1-yl)-5-fluoro-4-methylbenzenesulfonamide trifluoroacetate salt], the IC50 in assay [1] was less than 100 nM; in assay [2] it was less than 100 nM; in assay [3], 100 to 500 nM.

Turning to `Cc1ccc(S(C)(=O)=O)cc1-c1cnc2c(N)nc(-c3ccncc3Cl)cn12` [Example 484, 6-(3-Chloropyridin-4-yl)-3-(2-methyl-5-(methylsulfonyl)phenyl)imidazo[1,2-a]pyrazin-8-amine trifluoroacetate], the concentration for half-maximal inhibition (IC50) in assay [1] (Homo sapiens) is 100 to 500 nM; in assay [2], less than 100 nM; in assay [3] it was 100 to 500 nM.

As to `Cc1ccc(S(C)(=O)=O)cc1-c1cnc2c(N)nc(-c3ccc(C(C)O)cc3F)cn12` (stereo not drawn) [Example 488, 1-(4-(8-Amino-3-(2-methyl-5-(methylsulfonyl)phenyl)imidazo[1,2-a]pyrazin-6-yl)-3-fluorophenyl)ethan-1-ol], the 50% inhibitory concentration (IC50) in assay [1] (Homo sapiens) is 100 to 500 nM; in assay [2], less than 100 nM; in assay [3], 100 to 500 nM.

In the case of `Cc1ccc(S(=O)(=O)N[C@H]2CC[C@H](O)CC2)cc1-c1cnc2c(N)nc(C(C)C)cn12` [Example 504, 3-(8-Amino-6-isopropylimidazo[1,2-a]pyrazin-3-yl)-N-(trans-4-hydroxycyclohexyl)-4-methylbenzenesulfonamide], the IC50 in assay [1] (Homo sapiens), in assay [2] and in assay [3] was less than 100 nM in each case.

Take `Cc1ccc(S(=O)(=O)N[C@H]2CC[C@H](O)CC2)cc1-c1cn2cc(-c3ccccc3F)nc(N)c2n1` [Example 22, 3-[8-Amino-6-(2-fluorophenyl)imidazo[1,2-a]pyrazin-2-yl]-N-(trans-4-hydroxycyclohexyl)-4-methylbenzenesulfonamide]: the IC50 in assay [1], in assay [2] and in assay [3] was less than 100 nM throughout.

`[2H]C([2H])([2H])c1ccc(S(=O)(=O)NC23COC(C)(C2)C3)cc1-c1cnc2c(N)nc(C)nn12` [Example 426, 3-(4-Amino-2-methylimidazo[1,2-f][1,2,4]triazin-7-yl)-4-trideuteromethyl-N-(1-methyl-2-oxabicyclo[2.1.1]hexan-4-yl)benzenesulfonamide trifluoroacetate salt]: the half-maximal inhibitory concentration (IC50) in assay [1] (Homo sapiens) is 100 to 500 nM; in assay [2], less than 100 nM; in assay [3], 100 to 500 nM.

As for `Cc1ccc(S(=O)(=O)NC23CC(C(=O)O)(C2)C3)cc1-c1cnc2c(N)nc(C(F)(F)F)cn12` [Example 290, 3-(3-(8-Amino-6-(trifluoromethyl)imidazo[1,2-a]pyrazin-3-yl)-4-methylphenylsulfonamido)bicyclo[1.1.1]pentane-1-carboxylic acid trifluoroacetate salt], the IC50 in assay [1] (Homo sapiens) was more than 1000 nM; in assay [2] it was less than 100 nM; in assay [3], 500 to 2000 nM.

As to `Cc1cc(F)c(S(=O)(=O)N[C@H]2CC[C@H](CC#N)OC2)cc1-c1cnc2c(N)nc(C(F)(F)F)cn12` [Example 405, 5-(8-amino-6-(trifluoromethyl)imidazo[1,2-a]pyrazin-3-yl)-N-((3S,6R)-6-(cyanomethyl)tetrahydro-2H-pyran-3-yl)-2-fluoro-4-methylbenzenesulfonamide trifluoroacetate salt], the IC50 in assay [1] (Homo sapiens) was less than 100 nM; in assay [2], less than 100 nM; in assay [3] it was 100 to 500 nM.

`Cc1ccc(S(=O)(=O)NCC2(C)COC2)cc1-c1cnc2c(N)nccn12` [Example 15, 3-(8-Aminoimidazo[1,2-a]pyrazin-3-yl)-4-methyl-N-[(3-methyloxetan-3-yl)methyl]benzenesulfonamide trifluoroacetate]: the IC50 in assay [1] (Homo sapiens) was more than 1000 nM; in assay [2] it was less than 100 nM; in assay [3], 500 to 2000 nM.

Take `Cc1ccc(S(=O)(=O)NC23CC(CF)(C2)C3)cc1-c1cnc2c(N)nc(C(F)(F)F)cn12` [Example 286, 3-(8-Amino-6-(trifluoromethyl)imidazo[1,2-a]pyrazin-3-yl)-N-(3-(fluoromethyl)bicyclo[1.1.1]pentan-1-yl)-4-methylbenzenesulfonamide trifluoroacetate salt]: the IC50 was less than 100 nM in assay [1] (Homo sapiens), less than 100 nM in assay [2] and 100 to 500 nM in assay [3].

On to `Cc1ccc(-c2cnc3c(N)nccn23)cc1S(=O)(=O)N[C@H]1CC[C@H](O)CC1` [Example 41, 5-(8-Aminoimidazo[1,2-a]pyrazin-3-yl)-N-(trans-4-hydroxycyclohexyl)-2-methylbenzenesulfonamide], for which the half-maximal inhibitory concentration (IC50) in assay [1] (Homo sapiens) was more than 1000 nM; in assay [2] it was less than 100 nM; in assay [3] it was 100 to 500 nM.

Take `Cc1ccc(S(=O)(=O)N2CC3(CC(O)C3)C2)cc1-c1cnc2c(N)nc(C(F)(F)F)nn12` [Example 343, 2-((3-(4-amino-2-(trifluoromethyl)imidazo[2,1-f][1,2,4]triazin-7-yl)-4-methylphenyl)sulfonyl)-2-azaspiro[3.3]heptan-6-ol TFA]: the IC50 in assay [1] (Homo sapiens), in assay [2] and in assay [3] was less than 100 nM in each case.

On to `Cc1ccc(S(=O)(=O)NC23CCC(C(N)=O)(C2)C3)cc1-c1cnc2c(N)ncnn12` [Example 110, 4-(3-(4-Aminoimidazo[1,2-f][1,2,4]triazin-7-yl)-4-methylphenylsulfonamido)bicyclo[2.1.1]hexane-1-carboxamide trifluoroacetate salt], for which the IC50 in assay [1] was more than 1000 nM; in assay [2], less than 100 nM; in assay [3], 100 to 500 nM.

Regarding `Cc1ccc(S(=O)(=O)NC23CC(Cn4cccn4)(C2)C3)cc1-c1cnc2c(N)nc(C(F)(F)F)nn12` [Example 332, N-(3-((1H-pyrazol-1-yl)methyl)bicyclo[1.1.1]pentan-1-yl)-3-(4-amino-2-(trifluoromethyl)imidazo[1,2-f][1,2,4]triazin-7-yl)-4-methylbenzenesulfonamide trifluoroacetate salt], the results for the IC50 in assay [1], in assay [2] and in assay [3] were less than 100 nM, less than 100 nM and 100 to 500 nM, respectively.

As for `Cc1nc(N)c2ncc(-c3cc(S(=O)(=O)NCC(C)(C)O)ccc3C)n2n1` [Example 273, 3-(4-amino-2-methylimidazo[1,2-f][1,2,4]triazin-7-yl)-N-(2-hydroxy-2-methylpropyl)-4-methylbenzenesulfonamide trifluoroacetate salt], the IC50 in assay [1] is 100 to 500 nM; in assay [2], less than 100 nM; in assay [3] it was 500 to 2000 nM.

As for `Cc1ccc(S(=O)(=O)N2CCC3(CCO3)C2)cc1-c1cnc2c(N)ncnn12` (stereo not drawn) [Example 205, 7-(5-((1-Oxa-6-azaspiro[3.4]octan-6-yl)sulfonyl)-2-methylphenyl)imidazo[2,1-f][1,2,4]triazin-4-amine], the IC50 is more than 1000 nM in assay [1] (Homo sapiens), less than 100 nM in assay [2] and 500 to 2000 nM in assay [3].

In the case of `Cc1ccc(S(=O)(=O)N[C@H]2CC[C@H](O)CC2)cc1-c1cn2cc(-c3ccc(C#N)cc3)nc(N)c2n1` [Example 24, 3-[8-Amino-6-(4-cyanophenyl)imidazo[1,2-a]pyrazin-2-yl]-N-(trans-4-hydroxycyclohexyl)-4-methylbenzenesulfonamide], the values for the IC50 in assay [1], in assay [2] and in assay [3] were 100 to 500 nM, less than 100 nM and less than 100 nM, respectively.

With `Cc1ccc(S(=O)(=O)N(CCC#N)C2CCCC2)cc1-c1cnc2c(N)nc(C(F)(F)F)nn12` [Example 346, 3-(4-amino-2-(trifluoromethyl)imidazo[2,1-f][1,2,4]triazin-7-yl)-N-(2-cyanoethyl)-N-cyclopentyl-4-methylbenzenesulfonamide], the IC50 is 100 to 500 nM in assay [1] (Homo sapiens), less than 100 nM in assay [2] and 100 to 500 nM in assay [3].

For `Cc1cc(C)c(S(=O)(=O)N[C@H]2CC[C@](C)(O)CC2)cc1-c1cnc2c(N)nc(C(F)(F)F)nn12` [Example 413, 5-(4-Amino-2-(trifluoromethyl)imidazo[1,2-f][1,2,4]triazin-7-yl)-N-((1r,4r)-4-hydroxy-4-methylcyclohexyl)-2,4-dimethylbenzenesulfonamide trifluoroacetate salt], the IC50 was less than 100 nM in assay [1], less than 100 nM in assay [2] and 100 to 500 nM in assay [3].
